Target: human Nav1.7 (Homo sapiens (Human), UniProt Q15858)
Assay: Nav 1.7 In Vitro PX Assay (PatchXpress whole cell voltage clamp)
Format: cell-based
Conditions: in-vitro Nav 1.7 PX data
How it was run: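 Partially inactivated channels (20–50% inactivation at holding potential) probed by 20 ms pulses to −10 mV repeated at 0.1 Hz, in stable human Nav1.7 HEK293 cells.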

human Nav1.7, sequence (Q15858 whole entry): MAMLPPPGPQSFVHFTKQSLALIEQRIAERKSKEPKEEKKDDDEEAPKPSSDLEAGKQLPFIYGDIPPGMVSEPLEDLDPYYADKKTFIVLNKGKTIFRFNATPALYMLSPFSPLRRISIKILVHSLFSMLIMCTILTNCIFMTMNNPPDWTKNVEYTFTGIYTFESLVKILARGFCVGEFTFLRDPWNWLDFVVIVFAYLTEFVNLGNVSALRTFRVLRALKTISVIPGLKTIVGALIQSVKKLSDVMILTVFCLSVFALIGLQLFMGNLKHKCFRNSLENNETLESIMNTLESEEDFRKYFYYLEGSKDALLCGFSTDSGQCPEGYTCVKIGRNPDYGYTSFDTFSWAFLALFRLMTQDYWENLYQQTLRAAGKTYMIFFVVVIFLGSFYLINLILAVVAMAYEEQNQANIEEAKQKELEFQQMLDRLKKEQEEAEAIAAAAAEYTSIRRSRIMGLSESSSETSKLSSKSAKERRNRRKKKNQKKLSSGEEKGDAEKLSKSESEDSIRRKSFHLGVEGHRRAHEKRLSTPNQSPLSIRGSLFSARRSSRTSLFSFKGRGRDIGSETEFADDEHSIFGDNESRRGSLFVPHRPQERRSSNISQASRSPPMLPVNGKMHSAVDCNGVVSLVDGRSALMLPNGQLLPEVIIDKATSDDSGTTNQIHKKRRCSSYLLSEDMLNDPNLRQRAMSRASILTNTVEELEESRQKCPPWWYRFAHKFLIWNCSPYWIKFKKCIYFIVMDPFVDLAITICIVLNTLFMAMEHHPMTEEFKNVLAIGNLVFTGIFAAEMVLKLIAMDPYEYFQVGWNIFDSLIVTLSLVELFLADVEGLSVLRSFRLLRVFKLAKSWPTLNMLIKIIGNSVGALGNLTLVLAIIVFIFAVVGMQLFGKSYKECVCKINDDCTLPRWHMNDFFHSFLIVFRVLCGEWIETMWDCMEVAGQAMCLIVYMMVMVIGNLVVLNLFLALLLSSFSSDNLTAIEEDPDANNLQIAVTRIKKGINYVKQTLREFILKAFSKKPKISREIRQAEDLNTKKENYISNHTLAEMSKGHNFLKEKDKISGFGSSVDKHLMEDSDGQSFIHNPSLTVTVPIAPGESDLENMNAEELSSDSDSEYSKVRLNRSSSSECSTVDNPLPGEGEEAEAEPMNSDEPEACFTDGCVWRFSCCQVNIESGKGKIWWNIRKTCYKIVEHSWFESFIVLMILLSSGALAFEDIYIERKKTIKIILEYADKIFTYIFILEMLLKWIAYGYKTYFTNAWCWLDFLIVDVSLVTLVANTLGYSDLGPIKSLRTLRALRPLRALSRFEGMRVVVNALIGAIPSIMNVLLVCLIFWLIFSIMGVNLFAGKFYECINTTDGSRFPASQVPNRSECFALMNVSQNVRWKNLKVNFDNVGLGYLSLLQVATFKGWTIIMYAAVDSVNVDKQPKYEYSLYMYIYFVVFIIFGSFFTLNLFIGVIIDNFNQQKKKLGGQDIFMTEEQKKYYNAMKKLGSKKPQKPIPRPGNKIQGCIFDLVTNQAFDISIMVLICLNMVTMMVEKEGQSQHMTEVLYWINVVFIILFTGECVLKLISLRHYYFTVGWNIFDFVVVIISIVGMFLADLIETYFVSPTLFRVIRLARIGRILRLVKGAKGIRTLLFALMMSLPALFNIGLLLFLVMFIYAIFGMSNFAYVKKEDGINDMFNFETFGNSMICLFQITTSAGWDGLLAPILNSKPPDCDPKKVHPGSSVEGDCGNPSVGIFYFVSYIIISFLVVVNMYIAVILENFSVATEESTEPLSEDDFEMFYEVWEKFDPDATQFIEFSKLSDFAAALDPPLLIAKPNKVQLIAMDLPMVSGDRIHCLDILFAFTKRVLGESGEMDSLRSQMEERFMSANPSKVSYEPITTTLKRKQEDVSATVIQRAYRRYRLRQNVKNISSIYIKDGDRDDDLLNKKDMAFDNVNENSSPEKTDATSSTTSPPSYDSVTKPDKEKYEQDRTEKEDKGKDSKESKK

| IC50 [nM] | SMILES |
| --- | --- |
| 32 | CNC(=O)N(c1ccc(S(=O)(=O)Nc2ncccn2)cn1)c1cc(F)c(-c2ccc(F)c(C(F)(F)F)c2)cc1OC [Example 1-85, 6-((2,4′-difluoro-5-methoxy-3′-(trifluoromethyl)-4-biphenylyl)(methylcarbamoyl)amino)-N-2-pyrimidinyl-3-pyridinesulfonamide] |
| 220 | CNC(=O)N(c1ccc(S(=O)(=O)Nc2ncccn2)cn1)c1cc(F)c(-c2cc(F)c(F)c(F)c2)cc1OC [Example 1-86, 6-((methylcarbamoyl)(2,3′,4′,5′-tetrafluoro-5-methoxy-4-biphenylyl)amino)-N-2-pyrimidinyl-3-pyridinesulfonamide] |
| 40 | CNC(=O)N(c1ccc(S(=O)(=O)Nc2ncccn2)cn1)c1cc(F)c(-c2ccc(F)c(OCC(F)(F)F)c2)cc1OC [Example 1-88, 6-((2,4′-difluoro-5-methoxy-3′-(2,2,2-trifluoroethoxy)-4-biphenylyl)(methylcarbamoyl)amino)-N-2-pyrimidinyl-3-pyridinesulfonamide] |
| 45 | CNC(=O)N(c1ccc(S(=O)(=O)Nc2ncccn2)cn1)c1cc(F)c(-c2ccc(Cl)c(C(F)(F)F)c2)cc1OC [Example 1-89, 6-((4′-chloro-2-fluoro-5-methoxy-3′-(trifluoromethyl)-4-biphenylyl)(methylcarbamoyl)amino)-N-2-pyrimidinyl-3-pyridinesulfonamide] |
| 69 | CONC(=O)N(c1ccc(S(=O)(=O)Nc2ccon2)cn1)c1cc(F)c(-c2cccc(C(F)(F)F)c2)cc1OC [Example 1-90, 6-((2-fluoro-5-methoxy-3′-(trifluoromethyl)-4-biphenylyl)(methoxycarbamoyl)amino)-N-3-isoxazolyl-3-pyridinesulfonamide] |
| 18 | CNC(=O)N(c1ccc(S(=O)(=O)Nc2ncccn2)cn1)c1cc(F)c(-c2ccc(F)c(Cl)c2)cc1OC [Example 2-1, 6-((3′-chloro-2,4′-difluoro-5-methoxy-4-biphenylyl)(methylcarbamoyl)amino)-N-2-pyrimidinyl-3-pyridinesulfonamide] |
| 7 | CNC(=O)N(c1ccc(S(=O)(=O)Nc2ncccn2)cn1)c1cc(F)c(-c2ccc(F)c(C(F)F)c2)cc1OC [Example 2-2, 6-((3′-(difluoromethyl)-2,4′-difluoro-5-methoxy-4-biphenylyl)(methylcarbamoyl)amino)-N-2-pyrimidinyl-3-pyridinesulfonamide] |
| 54 | CNC(=O)N(c1ccc(S(=O)(=O)Nc2cccnn2)cn1)c1cc(Cl)c(-c2ccc(F)c(OCC(F)(F)F)c2)cc1OC [Example 2-4, 6-((2-chloro-4′-fluoro-5-methoxy-3′-(2,2,2-trifluoroethoxy)-4-biphenylyl)(methylcarbamoyl)amino)-N-3-pyridazinyl-3-pyridinesulfonamide] |
| 75 | CNC(=O)N(c1ccc(S(=O)(=O)Nc2cccnn2)cn1)c1cc(Cl)c(-c2cc(F)c(F)c(F)c2)cc1OC [Example 2-5, 6-((2-chloro-3′,4′,5′-trifluoro-5-methoxy-4-biphenylyl)(methylcarbamoyl)amino)-N-3-pyridazinyl-3-pyridinesulfonamide] |
| 26 | CNC(=O)N(c1ccc(S(=O)(=O)Nc2cccnn2)cn1)c1cc(Cl)c(-c2cc(OC)nc(C(F)(F)F)c2)cc1OC [Example 2-6, 6-((5-chloro-2-methoxy-4-(2-methoxy-6-(trifluoromethyl)-4-pyridinyl)phenyl)(methylcarbamoyl)amino)-N-3-pyridazinyl-3-pyridinesulfonamide] |
| 4 | CNC(=O)N(c1ccc(S(=O)(=O)Nc2ncccn2)cn1)c1ccc(-c2ccc(F)c(OC(F)(F)F)c2)cc1OC [Example 2-7, 6-((4′-fluoro-3-methoxy-3′-(trifluoromethoxy)-4-biphenylyl)(methylcarbamoyl)amino)-N-2-pyrimidinyl-3-pyridinesulfonamide] |
| 17 | CNC(=O)N(c1ccc(S(=O)(=O)Nc2ncccn2)cn1)c1ccc(-c2ccc(F)c(C(F)(F)F)c2)cc1OC [Example 2-8, 6-((4′-fluoro-3-methoxy-3′-(trifluoromethyl)-4-biphenylyl)(methylcarbamoyl)amino)-N-2-pyrimidinyl-3-pyridinesulfonamide] |
| 8 | CNC(=O)N(c1ccc(S(=O)(=O)Nc2ncccn2)cn1)c1cc(Cl)c(-c2ccc(F)c(OC(F)(F)F)c2)cc1OC [Example 2-10, 6-((2-chloro-4′-fluoro-5-methoxy-3′-(trifluoromethoxy)-4-biphenylyl)(methylcarbamoyl)amino)-N-2-pyrimidinyl-3-pyridinesulfonamide] |
| 14 | CCCCCCCCCCCCCCc1cc(OC)c(N(C(=O)NC)c2ccc(S(=O)(=O)Nc3ncccn3)cn2)cc1F [Example 2-11, 6-(1-(5-Fluoro-2-methoxy-4-tetradecylphenyl)-3-methylureido)-N-(pyrimidin-2-yl)pyridine-3-sulfonamide] |
| 63.5 | CNC(=O)N(c1ccc(S(=O)(=O)Nc2nocc2C)cn1)c1cc(F)c(-c2ccc(F)c(OC(F)(F)F)c2)cc1OC [Example 2-12, 6-(1-(2,4′-difluoro-5-methoxy-3′-(trifluoromethoxy)-[1,1′-biphenyl]-4-yl)-3-methylureido)-N-(4-methylisoxazol-3-yl)pyridine-3-sulfonamide] |
| 116 | CNC(=O)N(c1ccc(S(=O)(=O)Nc2nocc2C)cn1)c1cc(F)c(-c2ccc(F)c(C(F)(F)F)c2)cc1OC [Example 2-13, 6-(1-(2,4′-difluoro-5-methoxy-3′-(trifluoromethyl)-[1,1′-biphenyl]-4-yl)-3-methylureido)-N-(4-methylisoxazol-3-yl)pyridine-3-sulfonamide] |
| 621 | CNC(=O)N(c1ccc(S(=O)(=O)Nc2nocc2C)cn1)c1cc(F)c(-c2ccc(F)c(OCC(F)(F)F)c2)cc1OC [Example 2-14, 6-(1-(2,4′-difluoro-5-methoxy-3′-(2,2,2-trifluoroethoxy)-[1,1′-biphenyl]-4-yl)-3-methylureido)-N-(4-methylisoxazol-3-yl)pyridine-3-sulfonamide] |
| 33 | CNC(=O)N(c1ccc(S(=O)(=O)Nc2ncccn2)cn1)c1cc(Cl)c(-c2ccc(F)c(OCC(F)(F)F)c2)cc1OC [Example 3-1, 6-((2-chloro-4′-fluoro-5-methoxy-3′-(2,2,2-trifluoroethoxy)-4-biphenylyl)(methylcarbamoyl)amino)-N-2-pyrimidinyl-3-pyridinesulfonamide] |
| 31 | CNC(=O)N(c1ccc(S(=O)(=O)Nc2cnsn2)cn1)c1cc(Cl)c(-c2ccc(F)c(OCC(F)(F)F)c2)cc1OC [Example 3-2, 6-((2-chloro-4′-fluoro-5-methoxy-3′-(2,2,2-trifluoroethoxy)-4-biphenylyl)(methylcarbamoyl)amino)-N-1,2,5-thiadiazol-3-yl-3-pyridinesulfonamide] |
| 73 | CNC(=O)N(c1ccc(S(=O)(=O)Nc2cccc(F)n2)cn1)c1cc(Cl)c(-c2ccc(F)c(OCC(F)(F)F)c2)cc1OC [Example 3-3, 6-((2-chloro-4′-fluoro-5-methoxy-3′-(2,2,2-trifluoroethoxy)-4-biphenylyl)(methylcarbamoyl)amino)-N-(6-fluoro-2-pyridinyl)-3-pyridinesulfonamide] |
| 53 | CNC(=O)N(c1ccc(S(=O)(=O)Nc2ncco2)cn1)c1cc(Cl)c(-c2ccc(F)c(OCC(F)(F)F)c2)cc1OC [Example 3-4, 6-((2-chloro-4′-fluoro-5-methoxy-3′-(2,2,2-trifluoroethoxy)-4-biphenylyl)(methylcarbamoyl)amino)-N-1,3-oxazol-2-yl-3-pyridinesulfonamide] |
| 76 | CNC(=O)N(c1ccc(S(=O)(=O)Nc2ccnc(C)n2)cn1)c1cc(Cl)c(-c2ccc(F)c(OCC(F)(F)F)c2)cc1OC [Example 3-5, 6-((2-chloro-4′-fluoro-5-methoxy-3′-(2,2,2-trifluoroethoxy)-4-biphenylyl)(methylcarbamoyl)amino)-N-(2-methyl-4-pyrimidinyl)-3-pyridinesulfonamide] |
| 51 | CNC(=O)N(c1ccc(S(=O)(=O)Nc2ccncn2)cn1)c1cc(Cl)c(-c2ccc(F)c(OCC(F)(F)F)c2)cc1OC [Example 3-6, 6-((2-chloro-4′-fluoro-5-methoxy-3′-(2,2,2-trifluoroethoxy)-4-biphenylyl)(methylcarbamoyl)amino)-N-4-pyrimidinyl-3-pyridinesulfonamide] |
| 28 | CNC(=O)N(c1ccc(S(=O)(=O)Nc2ncccn2)cn1)c1cc(Cl)c(-c2ccc(F)c(C(F)(F)F)c2)cc1OC [Example 3-7, 6-((2-chloro-4′-fluoro-5-methoxy-3′-(trifluoromethyl)-4-biphenylyl)(methylcarbamoyl)amino)-N-2-pyrimidinyl-3-pyridinesulfonamide] |
| 14 | CNC(=O)N(c1ccc(S(=O)(=O)Nc2cnsn2)cn1)c1cc(Cl)c(-c2ccc(F)c(C(F)(F)F)c2)cc1OC [Example 3-8, 6-((2-chloro-4′-fluoro-5-methoxy-3′-(trifluoromethyl)-4-biphenylyl)(methylcarbamoyl)amino)-N-1,2,5-thiadiazol-3-yl-3-pyridinesulfonamide] |
| 53 | CNC(=O)N(c1ccc(S(=O)(=O)Nc2cccc(F)n2)cn1)c1cc(Cl)c(-c2ccc(F)c(C(F)(F)F)c2)cc1OC [Example 3-9, 6-((2-chloro-4′-fluoro-5-methoxy-3′-(trifluoromethyl)-4-biphenylyl)(methylcarbamoyl)amino)-N-(6-fluoro-2-pyridinyl)-3-pyridinesulfonamide] |
| 20 | CNC(=O)N(c1ccc(S(=O)(=O)Nc2ncco2)cn1)c1cc(Cl)c(-c2ccc(F)c(C(F)(F)F)c2)cc1OC [Example 3-10, 6-((2-chloro-4′-fluoro-5-methoxy-3′-(trifluoromethyl)-4-biphenylyl)(methylcarbamoyl)amino)-N-1,3-oxazol-2-yl-3-pyridinesulfonamide] |
| 26 | CNC(=O)N(c1ccc(S(=O)(=O)Nc2ccnc(C)n2)cn1)c1cc(Cl)c(-c2ccc(F)c(C(F)(F)F)c2)cc1OC [Example 3-11, 6-((2-chloro-4′-fluoro-5-methoxy-3′-(trifluoromethyl)-4-biphenylyl)(methylcarbamoyl)amino)-N-(2-methyl-4-pyrimidinyl)-3-pyridinesulfonamide] |

Reference: patent US10668067B2, “Pyridine sulfonamides” (AMGEN INC., priority 2016, dated 2020)
